# Values quoted from earlier work as cited in patent publication US6436414B1, “Active ingredient combinations or adducts of biotin and/or biotin derivatives and cyclodextrins and use of such active ingredient combinations in cosmetic preparations” (Beiersdorf AG, priority 1999, dated 2002).
# Conditions: according to the literature
smiles,measurement,value
"O=C(O)CCCC[C@@H]1SC[C@@H]2NC(=O)N[C@@H]21 [biotin, D-cis-hexahydro-2-oxothieno[3,4-d]imidazole-4-valeric acid]",solubility limit of biotin in aqueous solution,about 0.04%
